Experimental data taken from ChEMBL document CHEMBL4507276 (2021).

Key:
[1] = target: Macrophage colony-stimulating factor 1 receptor (Homo sapiens) (UniProt P07333); conditions: Compound concentration 1000.0 nM
[2] = target: Phosphatidylinositol 3-kinase catalytic subunit type 3 (Homo sapiens) (UniProt Q8NEB9); assay: PIK3C3 Invitrogen selectivity data (BI); conditions: Compound concentration 3.0 uM
[3] = target: Somatostatin receptor type 4 (Homo sapiens) (UniProt P31391); assay: SST4_HU Cerep selectivity data (BI); conditions: Compound concentration 20.0 uM
Sequence of Somatostatin receptor type 4 (Homo sapiens) (P31391 whole entry): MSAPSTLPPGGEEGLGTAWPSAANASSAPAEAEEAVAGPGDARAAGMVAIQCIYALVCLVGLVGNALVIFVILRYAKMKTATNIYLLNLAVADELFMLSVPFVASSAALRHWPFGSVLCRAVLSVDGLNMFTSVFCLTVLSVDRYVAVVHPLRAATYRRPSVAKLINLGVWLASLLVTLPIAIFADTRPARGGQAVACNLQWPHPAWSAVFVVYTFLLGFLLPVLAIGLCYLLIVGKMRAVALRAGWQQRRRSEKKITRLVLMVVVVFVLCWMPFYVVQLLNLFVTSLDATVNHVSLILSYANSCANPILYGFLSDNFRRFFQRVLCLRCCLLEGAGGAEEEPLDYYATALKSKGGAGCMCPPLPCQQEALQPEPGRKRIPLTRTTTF

[4] = target: T1, Serine/threonine-protein kinase Nek2 (Homo sapiens) (UniProt P51955); assay: NEK2 Invitrogen selectivity data (BI); conditions: Compound concentration 3.0 uM
T1 sequence (whole entry): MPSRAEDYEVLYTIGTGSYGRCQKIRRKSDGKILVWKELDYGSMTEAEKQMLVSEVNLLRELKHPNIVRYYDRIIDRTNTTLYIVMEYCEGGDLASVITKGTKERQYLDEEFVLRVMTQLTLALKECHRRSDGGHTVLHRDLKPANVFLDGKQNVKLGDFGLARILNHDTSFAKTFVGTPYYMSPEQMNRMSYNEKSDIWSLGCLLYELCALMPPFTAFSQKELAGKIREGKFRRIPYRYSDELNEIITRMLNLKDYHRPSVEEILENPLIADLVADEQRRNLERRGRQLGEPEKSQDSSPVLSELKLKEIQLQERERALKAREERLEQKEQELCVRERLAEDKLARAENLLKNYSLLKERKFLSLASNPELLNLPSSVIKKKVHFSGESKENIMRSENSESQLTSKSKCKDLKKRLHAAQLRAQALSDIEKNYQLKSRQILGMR

[5] = target: Tyrosine-protein kinase BTK (Homo sapiens) (UniProt Q06187); assay: BTK Invitrogen selectivity data (BI); conditions: Compound concentration 3.0 uM
Sequence of Tyrosine-protein kinase BTK (Homo sapiens) (Q06187 whole entry): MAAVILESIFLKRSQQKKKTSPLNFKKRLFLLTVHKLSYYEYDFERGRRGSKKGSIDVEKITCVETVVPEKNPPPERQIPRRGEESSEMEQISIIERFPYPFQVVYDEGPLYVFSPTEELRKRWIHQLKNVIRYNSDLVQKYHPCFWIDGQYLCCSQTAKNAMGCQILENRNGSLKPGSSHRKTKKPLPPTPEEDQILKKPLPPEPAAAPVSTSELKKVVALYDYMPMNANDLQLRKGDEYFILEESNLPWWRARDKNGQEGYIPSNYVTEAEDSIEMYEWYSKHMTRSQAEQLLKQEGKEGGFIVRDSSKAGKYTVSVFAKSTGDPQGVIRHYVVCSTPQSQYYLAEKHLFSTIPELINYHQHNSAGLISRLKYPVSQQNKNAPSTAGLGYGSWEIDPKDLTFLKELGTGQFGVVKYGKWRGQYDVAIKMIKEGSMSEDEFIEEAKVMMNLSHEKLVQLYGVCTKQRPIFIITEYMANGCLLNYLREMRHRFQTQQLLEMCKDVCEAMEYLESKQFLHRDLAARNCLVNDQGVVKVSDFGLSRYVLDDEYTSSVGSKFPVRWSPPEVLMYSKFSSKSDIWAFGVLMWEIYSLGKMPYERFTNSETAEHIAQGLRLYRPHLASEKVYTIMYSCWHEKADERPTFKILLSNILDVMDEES

[6] = test system: Tyrosine-protein kinase ABL1 (Homo sapiens), P00519 [T315I]; assay: ABL1 T315I Invitrogen selectivity data (BI); conditions: Compound concentration 3.0 uM
[7] = target: Tyrosine-protein kinase SYK (Homo sapiens) (UniProt P43405); assay: SYK Invitrogen selectivity data (BI); conditions: Compound concentration 3.0 uM
[8] = target: Protein kinase C eta type (Homo sapiens) (UniProt P24723); assay: PRKCH Invitrogen selectivity data (BI); conditions: Compound concentration 3.0 uM
Sequence of Protein kinase C eta type (Homo sapiens) (P24723 whole entry): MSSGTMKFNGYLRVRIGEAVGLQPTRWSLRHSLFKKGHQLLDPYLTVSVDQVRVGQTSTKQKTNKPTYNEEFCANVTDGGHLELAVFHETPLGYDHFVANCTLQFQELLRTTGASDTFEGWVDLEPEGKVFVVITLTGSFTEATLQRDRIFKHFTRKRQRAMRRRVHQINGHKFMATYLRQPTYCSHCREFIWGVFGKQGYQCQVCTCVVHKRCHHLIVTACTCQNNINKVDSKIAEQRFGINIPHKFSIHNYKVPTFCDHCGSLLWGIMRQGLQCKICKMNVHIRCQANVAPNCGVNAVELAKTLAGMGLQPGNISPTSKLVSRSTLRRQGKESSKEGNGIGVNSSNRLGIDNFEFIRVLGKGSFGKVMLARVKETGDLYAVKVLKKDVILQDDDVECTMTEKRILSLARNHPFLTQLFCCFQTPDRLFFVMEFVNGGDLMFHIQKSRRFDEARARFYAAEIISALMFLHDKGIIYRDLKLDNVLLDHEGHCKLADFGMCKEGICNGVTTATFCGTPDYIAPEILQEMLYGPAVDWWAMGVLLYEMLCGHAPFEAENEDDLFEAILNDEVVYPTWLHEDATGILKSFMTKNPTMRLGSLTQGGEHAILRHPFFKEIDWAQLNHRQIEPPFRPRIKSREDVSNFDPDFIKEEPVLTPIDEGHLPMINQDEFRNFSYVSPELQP

[9] = test system: Tyrosine-protein kinase ABL1 (Homo sapiens), P00519 [Y253F]; assay: ABL1 Y253F Invitrogen selectivity data (BI); conditions: Compound concentration 3.0 uM
[10] = target: T2, Muscarinic acetylcholine receptor M4 (Homo sapiens) (UniProt P08173); assay: M4/H Cerep selectivity data (BI); conditions: Compound concentration 20.0 uM
T2 sequence (whole entry): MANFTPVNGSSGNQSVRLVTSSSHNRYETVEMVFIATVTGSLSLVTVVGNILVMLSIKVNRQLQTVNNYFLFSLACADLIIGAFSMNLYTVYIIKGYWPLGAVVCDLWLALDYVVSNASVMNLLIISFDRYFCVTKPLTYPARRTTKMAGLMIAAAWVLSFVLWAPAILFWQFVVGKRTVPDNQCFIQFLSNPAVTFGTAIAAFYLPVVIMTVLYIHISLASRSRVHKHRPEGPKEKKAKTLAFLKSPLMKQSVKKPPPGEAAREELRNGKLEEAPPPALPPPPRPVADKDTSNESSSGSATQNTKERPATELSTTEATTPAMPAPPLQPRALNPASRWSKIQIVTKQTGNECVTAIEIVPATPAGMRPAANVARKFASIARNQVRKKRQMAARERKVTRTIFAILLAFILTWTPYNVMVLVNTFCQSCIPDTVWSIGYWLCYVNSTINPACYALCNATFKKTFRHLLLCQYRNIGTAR

[11] = target: Mitogen-activated protein kinase 10 (Homo sapiens) (UniProt P53779); assay: MAPK10 Invitrogen selectivity data (BI); conditions: Compound concentration 3.0 uM
Sequence of Mitogen-activated protein kinase 10 (Homo sapiens) (P53779 whole entry): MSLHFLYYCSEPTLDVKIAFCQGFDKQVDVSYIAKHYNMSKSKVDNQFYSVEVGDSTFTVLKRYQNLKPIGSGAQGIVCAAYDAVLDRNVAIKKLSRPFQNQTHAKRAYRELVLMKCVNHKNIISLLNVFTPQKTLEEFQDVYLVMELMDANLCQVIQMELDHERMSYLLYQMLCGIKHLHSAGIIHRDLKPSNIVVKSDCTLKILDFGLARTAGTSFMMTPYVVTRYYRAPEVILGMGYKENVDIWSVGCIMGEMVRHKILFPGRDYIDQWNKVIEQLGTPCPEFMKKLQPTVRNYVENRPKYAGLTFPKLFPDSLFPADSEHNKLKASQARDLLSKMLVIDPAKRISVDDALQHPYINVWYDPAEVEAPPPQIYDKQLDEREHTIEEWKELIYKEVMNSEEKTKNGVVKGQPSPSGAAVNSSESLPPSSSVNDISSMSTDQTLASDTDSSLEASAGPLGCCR

[12] = target: Ribosomal protein S6 kinase alpha-3 (Homo sapiens) (UniProt P51812); assay: RPS6KA3 Invitrogen selectivity data (BI); conditions: Compound concentration 3.0 uM
[13] = target: Mitogen-activated protein kinase kinase kinase 9 (Homo sapiens) (UniProt P80192); assay: MAP3K9 Invitrogen selectivity data (BI); conditions: Compound concentration 3.0 uM
[14] = target: Macrophage-stimulating protein receptor (Homo sapiens) (UniProt Q04912); assay: MST1R Invitrogen selectivity data (BI); conditions: Compound concentration 3.0 uM
Sequence of Macrophage-stimulating protein receptor (Homo sapiens) (Q04912 25-304 limits assumed): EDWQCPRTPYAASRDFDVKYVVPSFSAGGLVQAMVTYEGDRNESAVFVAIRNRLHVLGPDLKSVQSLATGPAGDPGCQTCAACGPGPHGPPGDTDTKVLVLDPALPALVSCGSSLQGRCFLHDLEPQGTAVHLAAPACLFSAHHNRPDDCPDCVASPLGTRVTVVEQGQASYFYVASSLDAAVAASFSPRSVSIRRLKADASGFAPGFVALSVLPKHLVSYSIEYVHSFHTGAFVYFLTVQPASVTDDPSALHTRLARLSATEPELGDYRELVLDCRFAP
Sequence of Macrophage-stimulating protein receptor (Homo sapiens) (Q04912 310-1400 limits assumed): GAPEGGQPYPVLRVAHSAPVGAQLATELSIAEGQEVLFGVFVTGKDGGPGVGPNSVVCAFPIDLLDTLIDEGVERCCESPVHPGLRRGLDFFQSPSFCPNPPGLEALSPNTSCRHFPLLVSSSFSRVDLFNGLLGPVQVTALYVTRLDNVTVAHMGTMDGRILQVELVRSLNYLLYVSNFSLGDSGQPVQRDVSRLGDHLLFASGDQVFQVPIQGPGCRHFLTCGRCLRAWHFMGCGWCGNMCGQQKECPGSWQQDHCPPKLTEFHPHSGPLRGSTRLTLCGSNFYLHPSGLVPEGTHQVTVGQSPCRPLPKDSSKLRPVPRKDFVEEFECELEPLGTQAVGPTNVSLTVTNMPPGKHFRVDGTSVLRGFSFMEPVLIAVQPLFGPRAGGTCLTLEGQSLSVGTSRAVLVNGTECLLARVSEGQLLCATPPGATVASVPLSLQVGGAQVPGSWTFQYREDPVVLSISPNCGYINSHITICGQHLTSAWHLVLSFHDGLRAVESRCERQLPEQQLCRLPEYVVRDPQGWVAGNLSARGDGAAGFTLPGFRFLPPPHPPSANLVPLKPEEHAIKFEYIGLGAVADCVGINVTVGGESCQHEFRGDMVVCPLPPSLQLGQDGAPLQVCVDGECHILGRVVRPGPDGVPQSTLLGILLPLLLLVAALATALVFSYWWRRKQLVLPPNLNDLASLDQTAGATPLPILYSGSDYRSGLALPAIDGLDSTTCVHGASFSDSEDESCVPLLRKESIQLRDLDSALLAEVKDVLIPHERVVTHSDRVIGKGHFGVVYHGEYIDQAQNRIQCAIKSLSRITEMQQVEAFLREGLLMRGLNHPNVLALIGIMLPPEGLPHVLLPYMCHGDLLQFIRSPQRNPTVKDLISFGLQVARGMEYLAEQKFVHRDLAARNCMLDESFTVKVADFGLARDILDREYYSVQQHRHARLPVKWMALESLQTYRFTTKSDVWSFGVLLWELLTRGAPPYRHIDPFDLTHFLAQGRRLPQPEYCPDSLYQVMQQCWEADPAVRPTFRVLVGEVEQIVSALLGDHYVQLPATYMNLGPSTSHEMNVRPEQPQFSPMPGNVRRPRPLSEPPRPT

[15] = target: T3, Mitogen-activated protein kinase kinase kinase 2 (Homo sapiens) (UniProt Q9Y2U5); assay: MAP3K2 Invitrogen selectivity data (BI); conditions: Compound concentration 3.0 uM
T3 sequence (whole entry): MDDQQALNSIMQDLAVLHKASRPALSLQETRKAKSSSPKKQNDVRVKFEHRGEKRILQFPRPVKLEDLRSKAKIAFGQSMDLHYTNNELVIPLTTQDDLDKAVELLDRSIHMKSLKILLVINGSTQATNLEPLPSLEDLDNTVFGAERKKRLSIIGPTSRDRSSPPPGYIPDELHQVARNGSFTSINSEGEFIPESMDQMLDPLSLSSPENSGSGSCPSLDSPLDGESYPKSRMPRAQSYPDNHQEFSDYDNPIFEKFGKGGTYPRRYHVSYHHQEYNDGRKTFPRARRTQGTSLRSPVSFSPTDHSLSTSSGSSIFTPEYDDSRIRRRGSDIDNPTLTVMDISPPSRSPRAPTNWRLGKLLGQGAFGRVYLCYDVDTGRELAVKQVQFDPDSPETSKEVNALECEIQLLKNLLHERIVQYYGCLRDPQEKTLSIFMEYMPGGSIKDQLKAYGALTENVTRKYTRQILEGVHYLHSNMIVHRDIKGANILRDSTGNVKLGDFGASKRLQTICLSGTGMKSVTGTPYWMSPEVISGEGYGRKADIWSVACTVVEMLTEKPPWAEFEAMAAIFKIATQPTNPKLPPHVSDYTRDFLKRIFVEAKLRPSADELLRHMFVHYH

[16] = target: T4, Mitogen-activated protein kinase kinase kinase 7 (Homo sapiens) (UniProt O43318); assay: MAP3K7_K7IP1 Invitrogen selectivity data (BI); conditions: Compound concentration 3.0 uM
T4 sequence (whole entry): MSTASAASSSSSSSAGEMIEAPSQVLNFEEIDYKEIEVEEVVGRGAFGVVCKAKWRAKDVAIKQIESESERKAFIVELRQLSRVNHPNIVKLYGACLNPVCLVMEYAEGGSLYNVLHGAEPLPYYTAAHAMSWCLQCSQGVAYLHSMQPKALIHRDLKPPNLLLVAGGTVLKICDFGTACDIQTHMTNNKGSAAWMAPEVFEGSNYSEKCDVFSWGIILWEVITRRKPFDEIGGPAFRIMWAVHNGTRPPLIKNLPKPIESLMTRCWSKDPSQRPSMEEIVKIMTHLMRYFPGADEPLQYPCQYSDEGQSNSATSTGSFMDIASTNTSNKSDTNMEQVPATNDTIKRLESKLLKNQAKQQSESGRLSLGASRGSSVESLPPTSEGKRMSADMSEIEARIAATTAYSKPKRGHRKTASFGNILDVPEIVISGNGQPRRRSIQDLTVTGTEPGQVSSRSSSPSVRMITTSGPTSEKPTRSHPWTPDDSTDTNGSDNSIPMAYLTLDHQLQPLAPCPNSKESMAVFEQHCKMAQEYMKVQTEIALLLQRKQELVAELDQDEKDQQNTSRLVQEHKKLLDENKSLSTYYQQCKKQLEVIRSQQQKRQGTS

[17] = target: Insulin receptor (Homo sapiens) (UniProt P06213); assay: INSR Invitrogen selectivity data (BI); conditions: Compound concentration 3.0 uM
Sequence of Insulin receptor (Homo sapiens) (P06213 28-758 limits assumed): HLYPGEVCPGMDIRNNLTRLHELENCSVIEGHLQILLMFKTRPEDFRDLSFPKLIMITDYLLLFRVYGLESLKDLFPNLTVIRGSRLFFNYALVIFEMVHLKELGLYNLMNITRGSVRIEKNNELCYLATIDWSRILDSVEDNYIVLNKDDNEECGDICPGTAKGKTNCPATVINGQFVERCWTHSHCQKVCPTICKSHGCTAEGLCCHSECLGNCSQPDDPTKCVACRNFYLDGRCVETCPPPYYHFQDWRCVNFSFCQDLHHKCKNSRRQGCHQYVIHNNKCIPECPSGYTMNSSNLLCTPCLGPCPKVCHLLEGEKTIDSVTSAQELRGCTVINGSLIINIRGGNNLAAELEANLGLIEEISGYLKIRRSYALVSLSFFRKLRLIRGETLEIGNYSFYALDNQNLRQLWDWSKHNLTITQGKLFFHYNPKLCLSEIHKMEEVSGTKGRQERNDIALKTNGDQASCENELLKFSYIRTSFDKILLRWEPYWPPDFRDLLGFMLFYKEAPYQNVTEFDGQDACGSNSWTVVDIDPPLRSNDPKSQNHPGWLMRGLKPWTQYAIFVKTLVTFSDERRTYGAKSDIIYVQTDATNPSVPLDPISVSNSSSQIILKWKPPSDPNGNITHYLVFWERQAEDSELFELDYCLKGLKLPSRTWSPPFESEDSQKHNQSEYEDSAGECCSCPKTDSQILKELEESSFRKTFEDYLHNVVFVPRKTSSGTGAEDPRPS
Sequence of Insulin receptor (Homo sapiens) (P06213 763-1382 limits assumed): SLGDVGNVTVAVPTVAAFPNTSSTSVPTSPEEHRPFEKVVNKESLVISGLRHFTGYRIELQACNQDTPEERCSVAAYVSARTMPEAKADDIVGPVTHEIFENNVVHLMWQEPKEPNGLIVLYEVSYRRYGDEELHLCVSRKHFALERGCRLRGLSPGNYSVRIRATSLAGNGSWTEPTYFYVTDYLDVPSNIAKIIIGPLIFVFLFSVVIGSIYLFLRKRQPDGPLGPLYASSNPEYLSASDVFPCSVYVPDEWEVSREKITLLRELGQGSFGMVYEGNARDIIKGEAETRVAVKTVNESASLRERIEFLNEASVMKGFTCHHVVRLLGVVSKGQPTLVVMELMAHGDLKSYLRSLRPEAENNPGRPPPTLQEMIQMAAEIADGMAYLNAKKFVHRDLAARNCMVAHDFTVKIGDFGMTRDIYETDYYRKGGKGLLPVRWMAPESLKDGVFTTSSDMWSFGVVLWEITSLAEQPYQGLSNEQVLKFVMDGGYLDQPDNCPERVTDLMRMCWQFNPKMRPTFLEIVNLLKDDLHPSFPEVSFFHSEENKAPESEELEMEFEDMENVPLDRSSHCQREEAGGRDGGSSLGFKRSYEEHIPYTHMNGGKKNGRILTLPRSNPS

Measured: residual activity

CN(C)C(=O)Cn1cc(-c2nc(C3(c4ccc(-c5cnc(N)nc5)cc4)CC3)no2)cn1 [BI 0153]
inactive: [1] 100%

CN(C)C(=O)Cn1cc(-c2nc([C@@](C)(c3ccc(-c4cnc(N)nc4)cc3)C3CC3)no2)cn1 [BI 665915]
inactive: [2] 94.5% | [3] 146% | [4] 88% | [5] 89.5% | [6] 83% | [7] 90% | [8] 86% | [9] 80% | [10] 103% | [11] 96% | [12] 105% | [13] 91% | [14] 95% | [15] 97% | [16] 87% | [17] 100%
